The subject of data set [1] is human epidermal keratinocytes (HEKa). Briefly: MTT cell viability assay in keratinocytes. In kind it is cell-based. The following applies: as TFA-salt, any concentration assessed; keratinocytes and fibroblasts. On the procedure: This example evaluated the effects of the tested peptides on human epidermal keratinocytes and dermal fibroblasts cell viability. The 3-(4,5-dimethyl-2-thiazolyl)-2,5-diphenyl-2H-tetrazolium bromide (MTT) assay was used to that monitor cell proliferation and viability based on the capacity of the mitochondrial dehydrogenase enzyme to break and transform the tetrazolium rings of MTT.
Epidermal keratinocytes were seeded in a previously coated 96 well-plate at 50-60% confluence in 100 μL of supplemented medium. Dermal fibroblasts were seeded in a 96 well-plate at 70% confluence in 100 μL supplemented medium. 24 hours after seeding, medium was replaced by fresh supplemented medium containing peptides dissolved at concentration range between 0.1 and 100 μM or SDS as reference of 100% toxicity or DMSO as vehicle for peptides. All test substances were incubated for 24 hours at 37° C. and 5% CO2. Afterwards, medium was replaced by 0.5 mg/mL of MTT solution for 4 h in complete medium. Then, medium was carefully removed and 150 μL/well of DMSO were added to solubilize formazan crystals. Plate was protected from light, shaken for 60 seconds and optical density was measured at 570 nm with a reference filter of 620 nm. Toxicity values were calculated as percentages by considering maximum cytotoxic effect to SDS-treated cells and minimum as non-treated cells. Table G details effects of Seq. ID No 1, 5, 6 and 7 peptides on keratinocytes and fibroblasts as percentage of cell viability inhibition.

Data set [2] deals with T1, human muscarinic receptor M3 (Homo sapiens, UniProt P20309).
T1 construct: expressed in transfected cells; cultured in Ham's F-12 medium
In words: Inhibition of M3-acetylcholine activation, Fluo-4 NW calcium fluorescence. In kind it is cell-based. As to conditions: 50 min, 50 min incubation, 10 nM acetylcholine. On the procedure: (§1) Epithelial stable cell line constitutively expressing human muscarinic receptor M3 was used to assess peptides activity. Cells were seeded in 96-well plates at 50% cell confluence in 100 μL of complete Ham's F-12 medium. After 24 hours, medium was removed and cells were incubated with 90 μL/well of a solution of the peptides of the invention at 100, 50 or 10 μM or DMSO as vehicle. Peptides were dissolved in Fluo-4 NW (Invitrogen) fluorescent calcium probe assay buffer containing Probenecid, following manufacturer's instructions for 50 min at 37° C. in a CO2 incubator. Afterwards, M3 activity was determined by reading the fluorescence in a FLUOstar Galaxy reader (BMG LabTechnologies) using 485 nm filter for excitation and 520 nm for emission, recording signal before and after M3 activation with 10 nM acetylcholine. Fluorescence measurements were normalized to acetylcholine maximum fluorescence signal in vehicle treated cells. Atropine (100 nM) was used as positive control for inhibition. Inhibition values of M3 activity were calculated as percentages by considering maximum fluorescence corresponding to acetylcholine-M3 activation and minimum as non-stimulated cells. Table D details inhibition values of M3 activity inhibition obtained for the peptides of invention.

In data set [3] the target is T1, human muscarinic receptor M3. Briefly: Time-dependent inhibition of M3 activity, Fluo-4 NW calcium fluorescence. In kind it is cell-based. As to conditions: peptide 50 μM, read-out: % Inhibition hM3 receptor activity. On the procedure:
Peptides of invention were designed to target the intracellular region of M3. Therefore, minimum time required to detect inhibitory effect on M3 activity was evaluated. For this purpose, inhibitory effect of peptides Seq. […] Epithelial stable cell line constitutively expressing human muscarinic receptor M3 was used to assess peptides activity. Cells were seeded in 96-well plates at 50% cell confluence in 100 μL of complete Ham's F-12 medium. After 24 hours, medium was removed and cells were incubated with 90 μL/well of Fluo-4 NW (Invitrogen) fluorescent calcium probe assay buffer containing probenecid, following manufacturer's instructions at 37° C. in a CO2 incubator. Peptides (50 μM), vehicle and atropine were incubated either with the probe (1 hour pre-incubation) or during fluorescence reading (direct effect). Afterwards, M3 activity was recorded for 20 cycles and direct effect peptides were added on cycle 3 after baseline assessment. Acetylcholine was added on cycle 13. Therefore, direct effect of peptides was monitored for 25 minutes. Inhibition values of M3 activity were calculated as percentages by considering maximum fluorescence corresponding to vehicle or non-treated cells acetylcholine-M3 activation and minimum as non-stimulated cells. Table E details inhibition values of M3 activity inhibition obtained for the peptides of invention.

The target is the same in data set [4]. In words: Dose-response inhibitory effect on M3 activity (IC50). In kind it is cell-based. On the procedure:
as §1
Characterization of Seq. ID No. 1, 3-8 peptides efficiency was obtained by calculating half maximal inhibitory concentration (IC50). For this purpose, experimental procedure regarding cell culture and fluorescent calcium probe assay was followed as described on Example 2. Peptides were assessed at concentrations between 0.1 and 100 μM and incubated for 1 hour together with Fluo-4 NW probe. Afterwards, M3 activity was determined by reading the fluorescence in a FLUOstar Galaxy reader (BMG LabTechnologies) using 485 nm filter for excitation and 520 nm for emission, recording signal before and after M3 activation with acetylcholine. Fluorescence measurements were standardized with regard to the maximum fluorescence signal detected with acetylcholine stimulation in vehicle treated cells. Inhibition values of M3 activity were calculated as percentages by considering maximum fluorescence corresponding to acetylcholine-M3 activation and minimum as non-stimulated cells. Percentage inhibition data was fitted to a sigmoidal curve to obtain IC50. Table F details inhibition values for IC50

In data set [5] the test system is sweating induced by pilocarpine. In words: Antiperspirant effect on acute administration, pilocarpine-induced mouse model of sweat secretion. In kind it is in vivo, C57BL6/Rcc male mice. As to conditions: at 10, 30 and 100 μg. On the procedure:
This example evaluated acute effects of the peptide of invention Seq. ID No 2, pamitoylated form, in an in vivo sweating model induced by pilocarpine. This model was established using pilocarpine, a non-selective agonist of muscarinic receptors, in 11-weeks old C57BL6/Rcc male mice.
Test compound is the peptide of the invention having the following sequence (Sequence ID No. 2): • Palm-WMMRLK-NH2
Test compound was injected i.pl. on the right hind paw (10, 30 and 100 μg) 30 min before sweating stimulation. Vehicle was saline solution.
(§2) Sweating was monitored through amylase activity detection on skin surface using iodine/starch reaction. Dark sweating drops were quantified after 5 minutes induction counting number of drops per paw in each condition. Data are expressed as mean±standard error of the mean (SEM). Raw data was normalized as percentage respect to non-injected stimulated individuals (Control, 100%) and saline-injected non-stimulated individuals (Vehicle, 0%). Statistical analysis was one-way ANOVA followed by Dunnett's post-hoc multiple comparison test comparing each condition with the corresponding control group, ****p<0.0001 ***p<0.001 **p<0.01, *p<0.05

For data set [6] the test system is unchanged. In words: Antiperspirant effect on chronic administration, pilocarpine-induced mouse model of sweat secretion. In kind it is in vivo, C57BL6/Rcc male mice. The following applies: during 4 weeks treatment, 10 and 100 μg/paw. On the procedure:
This example evaluated chronic effects of peptide of invention Seq. ID No. 2, palmitoylated form, in an in vivo sweating model. This model was established using pilocarpine, a non-selective agonist of muscarinic receptors, in 11-weeks old C57BL6/Rcc male mice. Test compound was locally administered three times per week for 4 weeks (Treatment). Sweat was induced by intraplantar (i.pl) injection of pilocarpine (3 μg/paw) in the right hind paw (Sweating) on weeks 1, 2 and 4 according to the table H.
Test compound is the peptide of the invention having the following sequence (Sequence ID No. 2): • Palm-WMRLK-NH2
Test compound was injected i.pl. on the right hind paw (1, 10 and 100 μg in). Vehicle injected was saline solution.
as §2, with “condition. Sample n=5-6 individuals per group.” for “condition.”, “100%).” for “100%) and saline-injected non-stimulated individuals (Vehicle, 0%).”

The inhibition is the drop in the measured response relative to a control, in per cent. Broadly, the IC50 is the midpoint of a concentration-inhibition curve.

Where a name gives a salt, the structure may show the parent alone. Peptide text beside a SMILES is read from it. * marks the point of attachment. Palmitoyl = CCCCCCCCCCCCCCCC(=O)*

T1 sequence (P20309 whole entry): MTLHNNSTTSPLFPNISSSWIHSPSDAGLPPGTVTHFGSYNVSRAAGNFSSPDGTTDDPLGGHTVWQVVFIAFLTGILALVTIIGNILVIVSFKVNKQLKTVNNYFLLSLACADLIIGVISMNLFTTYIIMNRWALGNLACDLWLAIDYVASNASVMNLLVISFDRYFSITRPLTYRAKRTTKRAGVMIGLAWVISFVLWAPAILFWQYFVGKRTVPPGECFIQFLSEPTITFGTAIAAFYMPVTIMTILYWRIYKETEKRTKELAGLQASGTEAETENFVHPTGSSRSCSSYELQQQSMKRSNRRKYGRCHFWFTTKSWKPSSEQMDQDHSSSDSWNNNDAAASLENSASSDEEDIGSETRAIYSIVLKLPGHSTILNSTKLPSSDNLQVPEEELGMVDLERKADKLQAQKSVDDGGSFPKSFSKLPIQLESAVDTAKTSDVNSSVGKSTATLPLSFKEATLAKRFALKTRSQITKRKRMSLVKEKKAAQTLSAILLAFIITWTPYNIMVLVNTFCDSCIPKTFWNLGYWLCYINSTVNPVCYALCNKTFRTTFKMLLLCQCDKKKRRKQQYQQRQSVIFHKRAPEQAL

Take `CCCCCCCCCCCCCCCC(=O)N[C@@H](Cc1c[nH]c2ccccc12)C(=O)N[C@@H](CCSC)C(=O)N[C@@H](CCCNC(=N)N)C(=O)N[C@@H](CC(C)C)C(N)=O` [Seq. ID No. 1 Palmitoyl (TFA salt)] (Palmitoyl-WMRL-NH2): in data set [1], the “effect on cell proliferation” value is reported as “did not affect cell proliferation”.
In the case of `CCCCCCCCCCCCCCCC(=O)N[C@@H](Cc1c[nH]c2ccccc12)C(=O)N[C@@H](CCSC)C(=O)N[C@@H](CCCNC(=N)N)C(=O)N[C@@H](CC(C)C)C(=O)N[C@@H](CCCCN)C(N)=O` [Seq. ID No. 2 Palmitoyl, Palm-WMRLK-NH2] (Palmitoyl-WMRLK-NH2), the inhibition at 10 µM in data set [2] (peptide 10 μM) was 62.5%. In addition, the inhibition at 50 µM in data set [2] (peptide 50 μM) is 85.4%; in data set [3] (25 min, 25 minutes (direct effect)), 25.5%; in data set [3] (60 minutes (1 hour pre-incubation)) it was 81%. Moreover, in data set [2] (peptide 100 μM), the inhibition at 100 µM was found to be 88.6%. Further, the IC50 in data set [4] stood at 7.2 µM. Moreover, the reduction of sweating entry in data set [5] was “significantly reduced sweating”. Also, the sweating inhibition entry in data set [6] was “significant sweating inhibition”.
Consider `CCCCCCCCCCCCCCCC(=O)N[C@@H](Cc1c[nH]c2ccccc12)C(=O)N[C@@H](CCSC)C(=O)N[C@@H](Cc1ccccc1)C(=O)N[C@@H](CC(C)C)C(=O)N[C@@H](CCCCN)C(N)=O` [Seq. ID No. 5 Palmitoyl (TFA salt)] (Palmitoyl-WMFLK-NH2), for which, in data set [1], the “effect on cell proliferation” value is given as “did not affect cell proliferation”.
Regarding “Ac-RMYKMMAGMYLR-NH2 [Seq. ID No. 6 Acetyl (TFA salt)]”, the “effect on cell proliferation” value in data set [1] is listed as “did not affect cell proliferation”.
Still for that read-out and setting: the same measure for “Ac-RVMYKMNKRDY-NH2 [Seq. ID No. 7 Acetyl (TFA salt)]”: “did not affect cell proliferation”.

The values are drawn from patent US12102705B2, “Peptides having inhibitory activity on muscarinic receptor M3” (AZIENDE CHIMICHE RIUNITE ANGELINI FRANCESCO—A.C.R.A.F. …, priority 2018, dated 2024).
